This note sets out measurements from patent US11167007B2, “FOXM1 modulators and uses thereof” (City of Hope, priority 2016, dated 2021).

In the test the target is T1, AR (Rattus norvegicus, UniProt P15207).
T1 construct: endogenous in cells; host or cells: L6 myoblasts
T1 sequence (P15207 1-902): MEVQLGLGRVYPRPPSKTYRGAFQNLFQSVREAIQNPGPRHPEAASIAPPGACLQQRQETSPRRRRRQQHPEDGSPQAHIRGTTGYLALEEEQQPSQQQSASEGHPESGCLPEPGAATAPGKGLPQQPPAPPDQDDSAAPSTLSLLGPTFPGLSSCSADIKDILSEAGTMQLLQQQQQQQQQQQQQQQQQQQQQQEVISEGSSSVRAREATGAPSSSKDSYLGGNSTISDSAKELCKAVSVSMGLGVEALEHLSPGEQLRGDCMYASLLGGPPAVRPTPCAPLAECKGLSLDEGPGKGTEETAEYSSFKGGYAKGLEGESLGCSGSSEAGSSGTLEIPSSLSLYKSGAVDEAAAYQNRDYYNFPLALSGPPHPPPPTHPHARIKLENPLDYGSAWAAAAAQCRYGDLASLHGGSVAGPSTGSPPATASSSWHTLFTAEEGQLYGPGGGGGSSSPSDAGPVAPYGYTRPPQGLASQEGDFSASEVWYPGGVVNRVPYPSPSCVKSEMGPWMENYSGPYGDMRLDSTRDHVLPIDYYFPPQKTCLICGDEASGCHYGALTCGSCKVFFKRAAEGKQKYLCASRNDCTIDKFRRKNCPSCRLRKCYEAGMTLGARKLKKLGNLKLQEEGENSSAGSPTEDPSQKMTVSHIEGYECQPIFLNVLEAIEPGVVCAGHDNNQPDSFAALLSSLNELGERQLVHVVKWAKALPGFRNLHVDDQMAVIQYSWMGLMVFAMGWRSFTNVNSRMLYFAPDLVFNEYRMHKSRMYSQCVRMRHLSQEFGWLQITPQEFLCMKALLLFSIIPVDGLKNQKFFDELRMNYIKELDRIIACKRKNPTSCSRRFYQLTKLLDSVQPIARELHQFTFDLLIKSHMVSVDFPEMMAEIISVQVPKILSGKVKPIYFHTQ
Kind of test: Androgen-responsive luciferase reporter assay in L6 skeletal muscle cells. Type of test: cell-based. As to conditions: FIG. 2B. The text has this:
Luciferase Reporter Assay. Cells were transfected using Lipofectamine Plus (Invitrogen) with a normalization plasmid (pRL-SV40, Promega) and an androgen responsive plasmid (MMTV-luciferase or PSA-luciferase) as described in Jones et al, ACS Chem Biol, 3(7):412-8 (2008), and, where indicated, with an shRNA plasmid targeting FOXM1 (adapted for mouse FOXM1 sequence targeting) a scrambled control shRNA plasmid, or ARQ24 or ARQ65 plasmids. Christensen et al, PLoS One, 8(1):e54556 (2013). The following day, cells and drugs were distributed to 96-well plates. 24 hours later, luciferase activity was assessed by a dual luciferase assay kit (Promega) on the Tecan plate reader. Samples were run in quadruplicates and a Student's t test was performed to determine significance, where p<0.05 was considered significant.
The ability of thiostrepton to inhibit AR activity in additional neuronal cells, including ReNcell CX cells PC12 cells, and in rat L6 skeletal muscle cells was examined (FIG. 2B). Donato et al, BMC Neurosci, 8:36 (2007); Yaffe, Proc Natl Acad Sci USA, 61(2):477-83 (1968).

Each structure is given as a SMILES string.

For the compound `C=C(NC(=O)C(=C)NC(=O)c1csc(C2=N[C@@H]3c4csc(n4)[C@H]4NC(=O)c5csc(n5)[C@H]([C@](C)(O)[C@@H](C)O)NC(=O)[C@H]5CSC(=N5)/C(=C/C)NC(=O)[C@H]([C@@H](C)O)NC(=O)c5csc(n5)[C@]3(CC2)NC(=O)[C@H](C)NC(=O)C(=C)NC(=O)[C@H](C)NC(=O)[C@H]([C@@H](C)CC)N[C@@H]2C=Cc3c([C@H](C)O)cc(nc3[C@H]2O)C(=O)O[C@@H]4C)n1)C(N)=O` [thiostrepton], the “inhibition of AR activity (luciferase)” value is given as “not muscle cells”.
